The values below come from patent US20120077801A1, “Chemical Compounds 637” (priority 2007, published 2012).

For assay [1], the target named is T1, recombinant Human Phosphodiesterase B2 (PDE4B2) (Homo sapiens, UniProt Q07343). Put plainly: Human Phosphodiesterase B2 Radiometric Assay. The class given is biochemical. The settings on record: for IC50: read-out: PDE4B2 pIC50 (converted). As for the experimental part:
Human Phosphodiesterase B2 Radiometric Assay
The assay uses recombinant Human Phosphodiesterase B2 (PDE4B2) produced in house (PrAZL0163), stored at −20° C. This assay is based on the observation that 5′AMP, the product of the reaction catalysed by PDE4, binds preferentially to yttrium silicate SPA beads (Amersham Biosciences, UK) compared to the substrate, cAMP. Compounds at the appropriate concentration were preincubated at 30 C for 30 min. with an assay buffer containing 50 mM HEPES (pH 7.5), 8.3 mM MgCl2, 1.7 mM EGTA, 0.01% (w/v) Brij®35 and 0.1 μg/mL recombinant PDE4B2. The reaction was started by the addition of [3H]cyclic AMP to give a final concentration of 8 nM, and was stopped 20 minutes after the addition of the substrate by the addition of yttrium silicate SPA beads containing 18 mM Zn SO4. Bound [3H]cyclic AMP was measured using a Topcount NXT (Packard Bioscience, UK). pIC50 values (presented in Table 15) were determined using X1fit3 curve fitting, using model 205.

In assay [2] the target is T1, recombinant Human Phosphodiesterase B2 (PDE4B2). Put plainly: Human Phosphodiesterase B2 Alpha Screen Assay. The class given is biochemical. Particulars: Alpha Screen cAMP assay, 60 minutes incubation at room temperature, read-out: PDE4B2 pIC50 (converted). On the procedure:
Human Phosphodiesterase B2 Alpha Screen Assay
The assay uses recombinant Human Phosphodiesterase B2 (PDE4B2) produced in house (PrAZL0133), stored at −20° C. The substrate uses cAMP, part of the Alpha Screen cAMP kit (Perkin Elmer, Cat#6760625M), stored at 4° C. The Alpha Screen kit also includes biotinylated cAMP, acceptor and donor beads.
The assay additions were as follows: Test compounds and controls were added to white 384-well flat-bottom plates (Greiner, Cat#781075), 0.2 μl in 100% DMSO, followed by 10 μl PDE4B2 in reaction buffer. The reaction buffer constitution was: 50 mM Tris (pH 7.5), 8.3 mM MgCl2, 1.7 mM EGTA and 0.01% (w/v) Brij®35. The enzyme and the compounds were incubated at room temperature for 15 minutes. Then 10 μl cAMP in reaction buffer was added. The assay was stopped after 60 minutes incubation at room temperature by adding 10 μl acceptor beads in detection buffer with 40 mM EDTA. The detection buffer constitution was: 5 mM Tris (pH 7.5), 0.1% (w/v) BSA and 0.1% (v/v) Tween 20. This addition followed by an addition of 10 μl donor beads in detection buffer, with biotinylated cAMP. The plates were then incubated, dark at room temperature, for 5 hours followed by measurement on a Fusion™-α analyser. pIC50 values (presented in Table 14) were determined using X1fit curve fitting using model 205.

Setting [3] is: recombinant human PDE4B2, [3H]cyclic AMP 8 nM, SPA radiometric assay.

T1 sequence (Q07343 1-564 isoform Q07343-2): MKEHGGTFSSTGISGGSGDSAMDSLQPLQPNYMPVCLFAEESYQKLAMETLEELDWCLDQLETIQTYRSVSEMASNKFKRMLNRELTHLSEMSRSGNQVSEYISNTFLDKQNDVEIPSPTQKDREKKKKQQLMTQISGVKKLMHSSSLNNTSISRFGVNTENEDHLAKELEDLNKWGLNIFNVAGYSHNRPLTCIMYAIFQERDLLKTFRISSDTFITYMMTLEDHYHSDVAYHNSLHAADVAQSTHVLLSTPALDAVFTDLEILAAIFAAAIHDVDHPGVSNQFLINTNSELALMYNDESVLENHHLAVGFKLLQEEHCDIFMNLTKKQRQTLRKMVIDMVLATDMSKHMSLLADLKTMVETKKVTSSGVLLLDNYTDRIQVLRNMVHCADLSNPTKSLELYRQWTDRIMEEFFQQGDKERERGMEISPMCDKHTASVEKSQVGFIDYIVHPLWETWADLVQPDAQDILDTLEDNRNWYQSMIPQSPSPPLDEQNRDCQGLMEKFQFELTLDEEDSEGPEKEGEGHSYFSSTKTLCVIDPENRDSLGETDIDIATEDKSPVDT

In the case of `CN(C)CCCn1c(=O)n([C@H]2CC[C@@H](NC(=O)c3cn4cc(F)ccc4n3)CC2)c(=O)c2cc(F)cnc21` [Example 41, N-{cis-4-[1-[3-(dimethylamino)propyl]-6-fluoro-2,4-dioxo-1,4-dihydropyrido[2,3-d]pyrimidin-3(2H)-yl]cyclohexyl}-6-fluoroimidazo[1,2-a]pyridine-2-carboxamide], the IC50 in assay [1] (setting [3]) is 0.158 µM. As to `CN1CCC(n2c(=O)n([C@H]3CC[C@@H](NC(=O)c4cn5cc(F)ccc5n4)CC3)c(=O)c3cc(F)cnc32)CC1` [Example 40, 6-fluoro-N-{cis-4-[6-fluoro-1-(1-methylpiperidin-4-yl)-2,4-dioxo-1,4-dihydropyrido[2,3-d]pyrimidin-3(2H)-yl]cyclohexyl}imidazo[1,2-a]pyridine-2-carboxamide], the “PDE4B2 % at 0.32 uM (printed in the pIC50 column)” value in assay [1] (at 0.32 uM, recombinant human PDE4B2, radiometric assay) was 50% at 0.32 uM. For `O=C(N[C@H]1CC[C@@H](n2c(=O)c3cc(F)cnc3n(-c3cccc(OCCN4CCOCC4)c3)c2=O)CC1)c1cn2cc(F)ccc2n1` [Example 43, 6-fluoro-N-{cis-4-[6-fluoro-1-[3-(2-morpholin-4-ylethoxy)phenyl]-2,4-dioxo-1,4-dihydropyrido[2,3-d]pyrimidin-3 (2H)-yl]cyclohexyl}imidazo[1,2-a]pyridine-2-carboxamide], the IC50 in assay [1] (setting [3]) was 0.001 µM. Turning to `COC(=O)[C@H]1CC[C@H](n2c(=O)n([C@H]3CC[C@@H](NC(=O)C4CC4)CC3)c(=O)c3cc(F)cnc32)CC1` [Example 8, methyl trans-4-[3-{cis-4-[(cyclopropylcarbonyl)amino]cyclohexyl}-6-fluoro-2,4-dioxo-3,4-dihydropyrido[2,3-d]pyrimidin-1(2H)-yl]cyclohexanecarboxylate], the IC50 in assay [2] is 0.0501 µM. On to `O=C(NC1CN2CCC1CC2)c1cccc(-n2c(=O)n([C@H]3CC[C@@H](NC(=O)c4cn5cc(F)ccc5n4)CC3)c(=O)c3cc(F)cnc32)c1` (some centres unmarked) [Example 42], for which the “PDE4B2 pIC50” value in assay [1] (setting [3]) was 7.7.
